Measured values published in ChEMBL document CHEMBL1134688, “Synthesis, biological evaluation, and pharmacophore generation of new pyridazinone derivatives with affinity toward alpha(1)- and alpha(2)-adrenoceptors” (J Med Chem, 2001).

Columns and labels:
[1] = target: T1, Adrenergic receptor alpha-1 (Rattus norvegicus, UniProt P15823+P23944+P43140); assay: Binding affinity towards alpha-1 adrenergic receptor in rat cortex membrane using [3H]-prazosin radioligand; type: cell membranes
T1 sequence (P15823 whole entry): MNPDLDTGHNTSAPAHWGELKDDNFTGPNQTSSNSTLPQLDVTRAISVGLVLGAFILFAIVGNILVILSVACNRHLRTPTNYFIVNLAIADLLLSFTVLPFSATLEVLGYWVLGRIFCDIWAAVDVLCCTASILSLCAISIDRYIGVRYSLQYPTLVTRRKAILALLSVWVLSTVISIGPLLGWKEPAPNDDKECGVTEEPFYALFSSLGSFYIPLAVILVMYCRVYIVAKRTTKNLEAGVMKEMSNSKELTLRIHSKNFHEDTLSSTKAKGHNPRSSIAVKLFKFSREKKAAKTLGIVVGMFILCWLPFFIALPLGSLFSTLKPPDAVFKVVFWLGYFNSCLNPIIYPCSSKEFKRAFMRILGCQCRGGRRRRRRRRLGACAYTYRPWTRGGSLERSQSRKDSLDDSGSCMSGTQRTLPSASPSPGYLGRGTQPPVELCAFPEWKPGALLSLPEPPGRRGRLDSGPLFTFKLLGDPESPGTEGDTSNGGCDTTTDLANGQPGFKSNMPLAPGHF
T1 sequence (P23944 whole entry): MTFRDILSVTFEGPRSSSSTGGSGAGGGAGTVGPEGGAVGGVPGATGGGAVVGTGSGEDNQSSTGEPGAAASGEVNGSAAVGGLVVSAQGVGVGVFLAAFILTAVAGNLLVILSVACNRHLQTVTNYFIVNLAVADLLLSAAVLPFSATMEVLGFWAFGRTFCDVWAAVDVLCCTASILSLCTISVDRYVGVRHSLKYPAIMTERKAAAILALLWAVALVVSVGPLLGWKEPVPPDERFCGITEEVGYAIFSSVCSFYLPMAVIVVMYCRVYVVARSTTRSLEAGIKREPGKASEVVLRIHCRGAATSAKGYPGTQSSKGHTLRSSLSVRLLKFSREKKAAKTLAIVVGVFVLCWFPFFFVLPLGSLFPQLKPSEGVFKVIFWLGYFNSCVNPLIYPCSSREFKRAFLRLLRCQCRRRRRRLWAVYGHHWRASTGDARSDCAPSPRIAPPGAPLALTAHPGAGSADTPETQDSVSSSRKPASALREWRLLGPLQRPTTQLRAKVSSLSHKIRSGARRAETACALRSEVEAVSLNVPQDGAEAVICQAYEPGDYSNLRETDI
T1 sequence (P43140 whole entry): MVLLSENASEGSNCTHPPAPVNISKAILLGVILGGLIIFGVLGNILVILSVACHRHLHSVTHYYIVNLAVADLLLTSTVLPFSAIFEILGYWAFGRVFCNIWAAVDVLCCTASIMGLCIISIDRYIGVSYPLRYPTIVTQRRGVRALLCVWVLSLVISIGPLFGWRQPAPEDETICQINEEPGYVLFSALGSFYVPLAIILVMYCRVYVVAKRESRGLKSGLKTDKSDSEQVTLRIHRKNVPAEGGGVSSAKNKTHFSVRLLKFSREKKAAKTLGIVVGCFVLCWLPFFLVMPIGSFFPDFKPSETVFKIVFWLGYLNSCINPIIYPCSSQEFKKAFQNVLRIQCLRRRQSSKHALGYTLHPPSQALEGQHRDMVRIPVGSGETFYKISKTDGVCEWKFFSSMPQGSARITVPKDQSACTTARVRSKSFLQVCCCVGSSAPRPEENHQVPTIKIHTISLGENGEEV

[2] = target: T2, Adrenergic receptor alpha-2 (Rattus norvegicus, UniProt P22086+P19328+P22909); assay: Binding affinity towards alpha-2 adrenergic receptor in rat cortex membrane using [3H]rauwolscine radioligand; type: cell membranes
T2 sequence (P22086 whole entry): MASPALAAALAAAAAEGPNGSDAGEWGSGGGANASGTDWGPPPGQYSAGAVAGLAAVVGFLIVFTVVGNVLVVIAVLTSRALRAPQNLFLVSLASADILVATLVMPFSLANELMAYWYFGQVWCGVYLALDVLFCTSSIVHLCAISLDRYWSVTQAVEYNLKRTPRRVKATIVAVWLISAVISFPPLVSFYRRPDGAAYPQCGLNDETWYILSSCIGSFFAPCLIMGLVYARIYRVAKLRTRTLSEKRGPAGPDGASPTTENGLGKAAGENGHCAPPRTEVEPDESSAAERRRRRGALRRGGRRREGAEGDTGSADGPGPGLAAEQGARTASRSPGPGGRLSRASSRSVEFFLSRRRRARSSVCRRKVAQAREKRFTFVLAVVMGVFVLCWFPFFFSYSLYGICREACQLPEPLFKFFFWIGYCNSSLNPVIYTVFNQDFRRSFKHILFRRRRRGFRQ
T2 sequence (P19328 whole entry): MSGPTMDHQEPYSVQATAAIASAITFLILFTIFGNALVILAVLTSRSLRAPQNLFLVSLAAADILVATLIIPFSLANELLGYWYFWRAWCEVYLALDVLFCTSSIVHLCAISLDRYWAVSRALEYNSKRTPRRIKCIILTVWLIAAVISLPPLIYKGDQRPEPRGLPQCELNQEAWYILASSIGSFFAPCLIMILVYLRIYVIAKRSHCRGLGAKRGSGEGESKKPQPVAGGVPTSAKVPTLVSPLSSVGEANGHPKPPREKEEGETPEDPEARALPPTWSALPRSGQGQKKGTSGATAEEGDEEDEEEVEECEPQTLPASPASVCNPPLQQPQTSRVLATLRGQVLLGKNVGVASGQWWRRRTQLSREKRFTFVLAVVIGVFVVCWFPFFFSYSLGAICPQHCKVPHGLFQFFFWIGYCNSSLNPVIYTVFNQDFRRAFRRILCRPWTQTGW
T2 sequence (P22909 whole entry): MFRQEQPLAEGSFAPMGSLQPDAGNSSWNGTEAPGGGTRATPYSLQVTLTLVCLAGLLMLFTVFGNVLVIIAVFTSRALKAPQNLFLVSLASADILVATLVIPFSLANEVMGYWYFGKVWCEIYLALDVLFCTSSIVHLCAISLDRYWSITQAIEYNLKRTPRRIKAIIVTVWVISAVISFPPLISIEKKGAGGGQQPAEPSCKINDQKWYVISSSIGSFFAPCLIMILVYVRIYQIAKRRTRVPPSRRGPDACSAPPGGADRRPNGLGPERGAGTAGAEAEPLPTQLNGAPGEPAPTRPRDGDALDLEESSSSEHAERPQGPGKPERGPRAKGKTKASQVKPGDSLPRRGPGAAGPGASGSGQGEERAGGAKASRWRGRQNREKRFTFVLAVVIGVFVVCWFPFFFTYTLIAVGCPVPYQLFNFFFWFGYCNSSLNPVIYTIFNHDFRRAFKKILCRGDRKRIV

[3] = target: Adrenergic receptor alpha-2 (Rattus norvegicus) (UniProt P22086+P19328+P22909); assay: Ratio of binding affinity towards Alpha-2 and alpha-1 adrenergic receptor; type: protein assay

SMILES | Ki [1] [nM] | Ki [2] [nM] | Ratio [3]
COc1ccccc1N1CCN(CCCCn2nc(N3CCN(C(=O)c4ccco4)CC3)ccc2=O)CC1 | 180 | 790 | 4.4
O=C(c1ccco1)N1CCN(c2ccc(=O)n(CCCN3CCN(c4ccccc4Cl)CC3)n2)CC1 | 12.8 | 260 | 20.3
COc1ccccc1OCCN1CCN(c2cnn(CCCCCN3CCN(c4ccccc4OC)CC3)c(=O)c2Cl)CC1 | 3.9 | 15 | 3.8
O=C(c1ccco1)N1CCN(c2ccc(=O)n(CCCCCN3CCN(c4ccccc4Cl)CC3)n2)CC1 | 13.3 | 105 | 7.9
COc1ccccc1OCCN1CCN(c2ccc(=O)n(CCCCCCN3CCN(c4ccccc4Cl)CC3)n2)CC1 | 8.4 | 138.8 | 16.5
COc1ccccc1OCCN1CCN(c2cnn(CCCCCCN3CCN(c4ccccc4OC)CC3)c(=O)c2Cl)CC1 | 1.5 | 3.5 | 2.3
COc1ccccc1OCCN1CCN(c2ccc(=O)n(CCCCN3CCN(c4ccccc4Cl)CC3)n2)CC1 | 0.8 | 69.4 | 86.7
COc1ccccc1N1CCN(Cn2nc(-c3ccccc3)c3c(C)onc3c2=O)CC1 | 2308 | – | –
COc1ccccc1OCCN1CCN(c2ccc(=O)n(CCCN3CCN(c4ccccc4Cl)CC3)n2)CC1 | 6.8 | 316 | 46.5
COc1ccccc1N1CCN(CCCCCn2nc(N3CCN(C(=O)c4ccco4)CC3)ccc2=O)CC1 | 43.7 | 255 | 5.8
O=C(c1ccco1)N1CCN(c2ccc(=O)n(CCCCN3CCN(c4ccccc4Cl)CC3)n2)CC1 | 7.9 | 24 | 3
COc1ccccc1N1CCN(CCCCCCCn2nc(N3CCN(C(=O)c4ccco4)CC3)ccc2=O)CC1 | 54.7 | 96 | 1.7
COc1ccccc1N1CCN(CCn2ncc(N3CCN(C(=O)c4ccco4)CC3)c(Cl)c2=O)CC1 | 33 | 440 | 13.3
COc1ccccc1OCCN1CCN(c2ccc(=O)n(CCCCCN3CCN(c4ccccc4Cl)CC3)n2)CC1 | 7 | 138 | 20
COc1ccccc1N1CCN(CCn2nc(N3CCN(C(=O)c4ccco4)CC3)ccc2=O)CC1 | 94.5 | – | –
O=C(c1ccco1)N1CCN(c2cnn(CCCCCN3CCN(c4ccccc4Cl)CC3)c(=O)c2Cl)CC1 | 3.6 | 18 | 5
COc1ccccc1OCCN1CCN(c2cnn(CCCN3CCN(c4ccccc4Cl)CC3)c(=O)c2Cl)CC1 | 27.8 | 219 | 7.8
COc1ccccc1N1CCN(CCCCCn2ncc(N3CCN(C(=O)c4ccco4)CC3)c(Cl)c2=O)CC1 | 1.9 | 23.3 | 12.3

SMILES | Ki [1] [nM] | Ki [2] [nM] | Ratio [3]
COc1ccccc1OCCN1CCN(c2ccc(=O)n(CCCCN3CCN(c4ccccc4OC)CC3)n2)CC1 | 0.6 | 62 | 103
COc1ccccc1OCCN1CCN(c2cnn(CCCCCCCCN3CCN(c4ccccc4OC)CC3)c(=O)c2Cl)CC1 | 3.5 | 22.7 | 6.5
COc1ccccc1OCCN1CCN(c2ccc(=O)n(CCN3CCN(c4ccccc4Cl)CC3)n2)CC1 | 18 | 370 | 20.5
O=C(c1ccco1)N1CCN(c2ccc(=O)n(CCCCCCN3CCN(c4ccccc4Cl)CC3)n2)CC1 | 5.9 | 23.7 | 4
O=C(c1ccco1)N1CCN(c2cnn(CCCCN3CCN(c4ccccc4Cl)CC3)c(=O)c2Cl)CC1 | 19 | 280 | 14.7
O=C(c1ccco1)N1CCN(c2ccc(=O)n(CCCCCCCN3CCN(c4ccccc4Cl)CC3)n2)CC1 | 5.6 | 23.5 | 4.2
COc1ccccc1OCCN1CCN(c2ccc(=O)n(CCCCCN3CCN(c4ccccc4OC)CC3)n2)CC1 | 12.9 | 69.8 | 5.4
COc1ccc(Cl)cc1N1CCN(CCn2nc(-c3ccccc3)c3c(C)onc3c2=O)CC1 | 15.6 | – | –
COc1ccc(Cl)cc1N1CCN(CCCn2nc(-c3ccccc3)c3c(C)onc3c2=O)CC1 | 7.9 | – | –
COc1ccccc1OCCN1CCN(c2ccc(=O)n(CCN3CCN(c4ccccc4OC)CC3)n2)CC1 | 38 | 1261 | 33.2
O=C(c1ccco1)N1CCN(c2cnn(CCCCCCCN3CCN(c4ccccc4Cl)CC3)c(=O)c2Cl)CC1 | 11.5 | 36.2 | 3.1
COc1ccccc1OCCN1CCN(c2ccc(=O)n(CCCN3CCN(c4ccccc4OC)CC3)n2)CC1 | 7.3 | 254 | 34.8
COc1ccccc1N1CCN(CC(=O)c2c(-c3ccccc3)nn(C)c(=O)c2N)CC1 | 516 | – | –
COc1ccccc1N1CCN(CCn2nc(-c3ccccc3)c3c(C)onc3c2=O)CC1 | 147 | – | –
COc1ccccc1N1CCN(Cn2nc(-c3ccccc3)c(C(C)=O)c(N)c2=O)CC1 | 2395 | – | –
COc1ccccc1N1CCN(CCCn2nc(-c3ccccc3)c(C(C)=O)c(N)c2=O)CC1 | 46.7 | – | –
COc1ccc(Cl)cc1N1CCN(CCn2nc(-c3ccccc3)c(C(C)=O)c(N)c2=O)CC1 | 42.7 | – | –
